According to ChEMBL document CHEMBL5260810, “Inhibition of bromodomain-containing protein 9 for the prevention of epigenetically-defined drug resistance” (Bioorg Med Chem Lett, 2017):

tested on: not listed separately; assay: Cytotoxicity against human Ci-1 cells measured after 8 days; type: functional, cell-based; conditions: Ci-1, 192 h

| SMILES | IC50 [µM] |
| --- | --- |
| C/C=C/Cn1cc(-c2ccc(C(C)(C)O)cc2OC)c2cc[nH]c2c1=O | 15 |

tested on: NCI-H358; assay: Cytotoxicity against human NCI-H358 cells measured after 8 days; type: functional, cell-based; conditions: NCI-H358, 192 h

| SMILES | IC50 [µM] |
| --- | --- |
| C/C=C/Cn1cc(-c2ccc(C(C)(C)O)cc2OC)c2cc[nH]c2c1=O | 20 |

target: Transcription initiation factor TFIID subunit 1 (Homo sapiens, UniProt P21675); assay: Binding affinity to human partial length TAF1 bromodomain 2 (D1521 to D1656 residues) expressed in bacterial expression system by BROMOscan assay; conditions: not given
Sequence (P21675 whole entry, the tested form may be a part): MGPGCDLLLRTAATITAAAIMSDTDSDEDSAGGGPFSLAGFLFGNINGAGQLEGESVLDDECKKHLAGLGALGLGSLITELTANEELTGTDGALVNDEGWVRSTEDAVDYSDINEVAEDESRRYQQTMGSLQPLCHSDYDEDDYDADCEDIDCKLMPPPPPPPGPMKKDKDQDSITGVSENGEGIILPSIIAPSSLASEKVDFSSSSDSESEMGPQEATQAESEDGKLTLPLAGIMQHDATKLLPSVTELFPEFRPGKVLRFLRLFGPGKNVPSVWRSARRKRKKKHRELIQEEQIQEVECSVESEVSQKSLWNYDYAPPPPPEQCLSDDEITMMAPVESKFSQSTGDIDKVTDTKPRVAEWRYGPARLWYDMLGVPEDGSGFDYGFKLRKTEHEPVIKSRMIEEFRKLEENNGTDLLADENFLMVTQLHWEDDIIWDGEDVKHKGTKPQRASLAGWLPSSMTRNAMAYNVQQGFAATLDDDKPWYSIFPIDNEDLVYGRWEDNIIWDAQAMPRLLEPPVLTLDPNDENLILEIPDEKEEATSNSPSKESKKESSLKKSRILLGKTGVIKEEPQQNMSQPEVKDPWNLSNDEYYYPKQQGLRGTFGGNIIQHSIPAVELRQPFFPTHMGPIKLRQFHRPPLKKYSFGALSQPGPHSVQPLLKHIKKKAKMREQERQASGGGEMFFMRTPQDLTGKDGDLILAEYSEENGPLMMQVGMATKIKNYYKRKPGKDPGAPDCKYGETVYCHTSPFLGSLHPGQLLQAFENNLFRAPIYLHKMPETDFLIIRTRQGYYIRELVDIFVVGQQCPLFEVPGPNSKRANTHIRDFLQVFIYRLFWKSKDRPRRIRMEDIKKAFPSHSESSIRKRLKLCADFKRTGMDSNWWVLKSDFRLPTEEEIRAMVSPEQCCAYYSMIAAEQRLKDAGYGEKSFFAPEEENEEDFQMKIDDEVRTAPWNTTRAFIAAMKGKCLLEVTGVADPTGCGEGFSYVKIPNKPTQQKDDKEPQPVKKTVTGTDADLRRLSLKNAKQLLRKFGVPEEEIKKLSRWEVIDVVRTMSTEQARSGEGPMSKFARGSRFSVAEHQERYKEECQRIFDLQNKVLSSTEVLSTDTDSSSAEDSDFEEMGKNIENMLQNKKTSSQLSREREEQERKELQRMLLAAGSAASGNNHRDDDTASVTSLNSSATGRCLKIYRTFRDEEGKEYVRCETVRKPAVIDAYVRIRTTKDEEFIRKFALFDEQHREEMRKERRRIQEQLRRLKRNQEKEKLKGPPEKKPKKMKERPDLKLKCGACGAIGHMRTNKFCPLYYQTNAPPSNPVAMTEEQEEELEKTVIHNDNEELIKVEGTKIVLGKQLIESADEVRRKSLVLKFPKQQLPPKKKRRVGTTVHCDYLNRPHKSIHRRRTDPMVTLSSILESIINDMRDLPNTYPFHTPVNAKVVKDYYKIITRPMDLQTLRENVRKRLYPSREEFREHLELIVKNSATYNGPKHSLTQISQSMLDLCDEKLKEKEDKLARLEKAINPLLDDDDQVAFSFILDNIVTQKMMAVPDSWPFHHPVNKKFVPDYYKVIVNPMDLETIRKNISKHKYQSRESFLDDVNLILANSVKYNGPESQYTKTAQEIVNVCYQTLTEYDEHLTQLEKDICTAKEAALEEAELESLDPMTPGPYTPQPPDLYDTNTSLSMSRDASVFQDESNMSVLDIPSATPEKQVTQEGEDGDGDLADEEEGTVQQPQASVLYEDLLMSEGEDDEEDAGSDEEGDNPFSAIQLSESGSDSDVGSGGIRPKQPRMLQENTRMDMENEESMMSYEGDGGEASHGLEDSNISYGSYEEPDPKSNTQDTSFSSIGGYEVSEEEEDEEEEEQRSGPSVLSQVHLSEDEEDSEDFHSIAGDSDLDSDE

| SMILES | Kd [µM] |
| --- | --- |
| C/C=C/Cn1cc(-c2ccc(C(C)(C)O)cc2OC)c2cc[nH]c2c1=O | > 10 |

tested on: SU-DHL-16; assay: Cytotoxicity against human SU-DHL-16 cells measured after 8 days; type: functional, cell-based; conditions: SU-DHL-16, 192 h

| SMILES | IC50 [µM] |
| --- | --- |
| C/C=C/Cn1cc(-c2ccc(C(C)(C)O)cc2OC)c2cc[nH]c2c1=O | 13.9 |

tested on: HT-29; assay: Cytotoxicity against human HT-29 cells measured after 8 days; type: functional, cell-based; conditions: HT-29, 192 h

| SMILES | IC50 [µM] |
| --- | --- |
| C/C=C/Cn1cc(-c2ccc(C(C)(C)O)cc2OC)c2cc[nH]c2c1=O | 20 |

tested on: not listed separately; assay: Cytotoxicity against human KPL-4 cells measured after 8 days; type: functional, cell-based; conditions: KPL4, 192 h

| SMILES | IC50 [µM] |
| --- | --- |
| C/C=C/Cn1cc(-c2ccc(C(C)(C)O)cc2OC)c2cc[nH]c2c1=O | 20 |

tested on: LCLC-103H cell line; assay: Cytotoxicity against human LCLC-103H cell line measured after 8 days; type: functional, cell-based; conditions: 192 h

| SMILES | IC50 [µM] |
| --- | --- |
| C/C=C/Cn1cc(-c2ccc(C(C)(C)O)cc2OC)c2cc[nH]c2c1=O | 20 |

tested on: HCC1143; assay: Cytotoxicity against human HCC1143 cells measured after 8 days; type: functional, cell-based; conditions: HCC1143, 192 h

| SMILES | IC50 [µM] |
| --- | --- |
| C/C=C/Cn1cc(-c2ccc(C(C)(C)O)cc2OC)c2cc[nH]c2c1=O | 20 |

tested on: EOL1; assay: Cytotoxicity against human EOL1 cells measured after 8 days; type: functional, cell-based; conditions: EOL1, 192 h

| SMILES | IC50 [µM] |
| --- | --- |
| C/C=C/Cn1cc(-c2ccc(C(C)(C)O)cc2OC)c2cc[nH]c2c1=O | 3.3 |

tested on: NCI-H2452; assay: Cytotoxicity against human NCI-H2452 cells measured after 8 days; type: functional, cell-based; conditions: NCI-H2452, 192 h

| SMILES | IC50 [µM] |
| --- | --- |
| C/C=C/Cn1cc(-c2ccc(C(C)(C)O)cc2OC)c2cc[nH]c2c1=O | 20 |

target: T1, Bromodomain-containing protein 4 (Homo sapiens, UniProt O60885); assay: Binding affinity to BRD4 bromodomain 1/2 long isoform (unknown origin) by BROMOscan assay; conditions: not given

| SMILES | Kd [µM] |
| --- | --- |
| C/C=C/Cn1cc(-c2ccc(C(C)(C)O)cc2OC)c2cc[nH]c2c1=O | 1.7 |

tested on: K562; assay: Cytotoxicity against human K562 cells measured after 8 days; type: functional, cell-based; conditions: K562, 192 h

| SMILES | IC50 [µM] |
| --- | --- |
| C/C=C/Cn1cc(-c2ccc(C(C)(C)O)cc2OC)c2cc[nH]c2c1=O | 20 |

tested on: SW1573; assay: Cytotoxicity against human SW1573 cells measured after 8 days; type: functional, cell-based; conditions: SW1573, 192 h

| SMILES | IC50 [µM] |
| --- | --- |
| C/C=C/Cn1cc(-c2ccc(C(C)(C)O)cc2OC)c2cc[nH]c2c1=O | 20 |

tested on: not listed separately; assay: Cytotoxicity against human KMM-1 cells measured after 8 days; type: functional, cell-based; conditions: KMM-1, 192 h

| SMILES | IC50 [µM] |
| --- | --- |
| C/C=C/Cn1cc(-c2ccc(C(C)(C)O)cc2OC)c2cc[nH]c2c1=O | 20 |

tested on: SW48; assay: Cytotoxicity against human SW48 cells measured after 8 days; type: functional, cell-based; conditions: SW48, 192 h

| SMILES | IC50 [µM] |
| --- | --- |
| C/C=C/Cn1cc(-c2ccc(C(C)(C)O)cc2OC)c2cc[nH]c2c1=O | 20 |

tested on: WiDr; assay: Cytotoxicity against human WiDr cells measured after 8 days; type: functional, cell-based; conditions: 192 h

| SMILES | IC50 [µM] |
| --- | --- |
| C/C=C/Cn1cc(-c2ccc(C(C)(C)O)cc2OC)c2cc[nH]c2c1=O | 20 |

target: Adrenergic receptor alpha-2 (Rattus norvegicus) (UniProt P22086+P19328+P22909); assay: Displacement of [3H]-RX 821002 from rat alpha2 adrenoceptor at 10 uM after 60 mins by scintillation counting analysis relative to control; type: protein assay; conditions: not given

| SMILES | Activity [%] |
| --- | --- |
| C/C=C/Cn1cc(-c2ccc(C(C)(C)O)cc2OC)c2cc[nH]c2c1=O | -1 |

target: High affinity nerve growth factor receptor (Homo sapiens) (UniProt P04629); assay: Inhibition of TrkA (unknown origin) at 1 uM relative to control; conditions: not given
Sequence (P04629 33-796 limits assumed): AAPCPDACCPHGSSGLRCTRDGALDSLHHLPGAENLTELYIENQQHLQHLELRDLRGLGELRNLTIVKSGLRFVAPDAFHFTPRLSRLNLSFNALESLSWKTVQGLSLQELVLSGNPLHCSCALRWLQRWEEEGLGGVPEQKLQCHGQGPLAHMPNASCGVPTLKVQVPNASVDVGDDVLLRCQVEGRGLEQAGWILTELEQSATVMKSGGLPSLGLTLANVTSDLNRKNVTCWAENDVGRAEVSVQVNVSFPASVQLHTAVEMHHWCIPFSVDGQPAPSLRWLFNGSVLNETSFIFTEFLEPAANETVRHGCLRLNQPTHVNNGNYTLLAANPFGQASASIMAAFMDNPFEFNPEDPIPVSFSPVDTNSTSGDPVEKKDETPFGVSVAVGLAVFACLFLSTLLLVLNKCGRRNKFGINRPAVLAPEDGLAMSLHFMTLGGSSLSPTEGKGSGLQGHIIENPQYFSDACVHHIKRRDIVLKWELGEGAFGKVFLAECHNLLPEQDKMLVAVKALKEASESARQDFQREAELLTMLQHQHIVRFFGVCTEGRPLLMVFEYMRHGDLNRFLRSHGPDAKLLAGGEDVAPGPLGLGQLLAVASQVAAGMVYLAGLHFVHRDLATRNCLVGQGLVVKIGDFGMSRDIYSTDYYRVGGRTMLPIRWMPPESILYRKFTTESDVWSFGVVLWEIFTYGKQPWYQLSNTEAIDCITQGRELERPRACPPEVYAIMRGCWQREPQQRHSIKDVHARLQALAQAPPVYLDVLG

| SMILES | inhibition [%] |
| --- | --- |
| C/C=C/Cn1cc(-c2ccc(C(C)(C)O)cc2OC)c2cc[nH]c2c1=O | 12.5 |

tested on: CAL-120; assay: Cytotoxicity against human CAL-120 cells measured after 8 days; type: functional, cell-based; conditions: CAL-120, 192 h

| SMILES | IC50 [µM] |
| --- | --- |
| C/C=C/Cn1cc(-c2ccc(C(C)(C)O)cc2OC)c2cc[nH]c2c1=O | 20 |

target: SWI/SNF-related matrix-associated actin-dependent regulator of chromatin subfamily A member 2 (Homo sapiens, UniProt P51531); assay: Binding affinity to human partial length SMARCA2 (S1377 to Q1486 residues) expressed in bacterial expression system by BROMOscan assay; conditions: not given

| SMILES | Kd [µM] |
| --- | --- |
| C/C=C/Cn1cc(-c2ccc(C(C)(C)O)cc2OC)c2cc[nH]c2c1=O | > 10 |

target: Bromodomain-containing protein 2 (Homo sapiens, UniProt P25440); assay: Binding affinity to human partial length BRD2 bromodomain 1/2 isoform 1 (K71 to D455 residues) by BROMOscan assay; conditions: not given
Sequence (P25440 whole entry, the tested form may be a part, canonical isoform): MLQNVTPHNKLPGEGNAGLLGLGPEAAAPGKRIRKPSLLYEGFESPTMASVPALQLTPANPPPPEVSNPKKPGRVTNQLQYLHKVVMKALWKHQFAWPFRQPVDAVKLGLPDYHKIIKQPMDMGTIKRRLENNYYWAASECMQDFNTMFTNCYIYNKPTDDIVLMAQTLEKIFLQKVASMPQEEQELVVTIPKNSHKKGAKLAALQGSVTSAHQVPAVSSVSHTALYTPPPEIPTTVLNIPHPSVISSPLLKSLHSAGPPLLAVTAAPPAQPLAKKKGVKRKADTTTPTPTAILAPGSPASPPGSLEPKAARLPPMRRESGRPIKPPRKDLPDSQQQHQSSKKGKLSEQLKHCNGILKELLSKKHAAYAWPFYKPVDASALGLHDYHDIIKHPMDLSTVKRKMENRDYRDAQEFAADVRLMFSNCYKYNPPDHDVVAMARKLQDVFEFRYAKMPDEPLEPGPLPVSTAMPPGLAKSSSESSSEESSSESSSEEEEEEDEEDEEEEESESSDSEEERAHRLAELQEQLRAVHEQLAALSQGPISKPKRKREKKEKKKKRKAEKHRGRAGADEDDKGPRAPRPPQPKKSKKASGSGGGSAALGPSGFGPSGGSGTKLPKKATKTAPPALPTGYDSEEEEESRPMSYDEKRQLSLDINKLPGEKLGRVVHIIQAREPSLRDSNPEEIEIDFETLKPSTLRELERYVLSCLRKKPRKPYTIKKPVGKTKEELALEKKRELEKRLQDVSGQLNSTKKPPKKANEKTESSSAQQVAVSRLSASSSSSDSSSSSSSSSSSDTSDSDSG

| SMILES | Kd [µM] |
| --- | --- |
| C/C=C/Cn1cc(-c2ccc(C(C)(C)O)cc2OC)c2cc[nH]c2c1=O | 2.8 |

tested on: not listed separately; assay: Cytotoxicity against human KPL-1 cells measured after 8 days; type: functional, cell-based; conditions: KPL-1, 192 h

| SMILES | IC50 [µM] |
| --- | --- |
| C/C=C/Cn1cc(-c2ccc(C(C)(C)O)cc2OC)c2cc[nH]c2c1=O | 17.5 |

tested on: AU565; assay: Cytotoxicity against human AU565 cells measured after 8 days; type: functional, cell-based; conditions: AU565, 192 h

| SMILES | IC50 [µM] |
| --- | --- |
| C/C=C/Cn1cc(-c2ccc(C(C)(C)O)cc2OC)c2cc[nH]c2c1=O | 20 |

target: Sodium-dependent noradrenaline transporter (Homo sapiens) (UniProt P23975); assay: Displacement of [3H]nisoxetine from recombinant human norepinephrine transporter at 10 uM after 120 mins by scintillation counting analysis relative to control; conditions: not given
Sequence (P23975 whole entry): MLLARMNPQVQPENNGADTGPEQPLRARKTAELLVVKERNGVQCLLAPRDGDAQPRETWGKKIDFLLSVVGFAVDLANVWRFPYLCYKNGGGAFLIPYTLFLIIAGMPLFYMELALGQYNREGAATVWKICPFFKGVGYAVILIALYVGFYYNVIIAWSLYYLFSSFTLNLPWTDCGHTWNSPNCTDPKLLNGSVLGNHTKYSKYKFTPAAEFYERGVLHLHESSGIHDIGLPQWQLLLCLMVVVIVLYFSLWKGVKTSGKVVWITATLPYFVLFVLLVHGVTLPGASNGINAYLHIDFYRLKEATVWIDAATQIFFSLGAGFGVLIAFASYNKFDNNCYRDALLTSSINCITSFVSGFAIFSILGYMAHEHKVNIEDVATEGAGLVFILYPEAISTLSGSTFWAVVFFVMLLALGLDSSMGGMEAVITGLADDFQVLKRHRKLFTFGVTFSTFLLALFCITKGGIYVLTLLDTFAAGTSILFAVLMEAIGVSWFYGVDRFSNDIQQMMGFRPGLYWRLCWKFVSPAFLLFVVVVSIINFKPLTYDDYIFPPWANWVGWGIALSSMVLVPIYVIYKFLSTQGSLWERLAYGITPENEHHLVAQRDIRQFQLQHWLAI

| SMILES | Activity [%] |
| --- | --- |
| C/C=C/Cn1cc(-c2ccc(C(C)(C)O)cc2OC)c2cc[nH]c2c1=O | -6 |

tested on: not listed separately; assay: Cytotoxicity against human NCI-H2731 cells measured after 8 days; type: functional, cell-based; conditions: NCI-H2731, 192 h

| SMILES | IC50 [µM] |
| --- | --- |
| C/C=C/Cn1cc(-c2ccc(C(C)(C)O)cc2OC)c2cc[nH]c2c1=O | 20 |

tested on: SUD4; assay: Cytotoxicity against human SU-DHL-4 cells measured after 8 days; type: functional, cell-based; conditions: SU-DHL-4, 192 h

| SMILES | IC50 [µM] |
| --- | --- |
| C/C=C/Cn1cc(-c2ccc(C(C)(C)O)cc2OC)c2cc[nH]c2c1=O | 8.59 |

species: Homo sapiens; assay: Binding affinity to GABA-gated chloride channel (unknown origin) at 10 uM by antagonist radioligand-based assay relative to control; set-up: scale not given: the % may be the effect or the level left; conditions: time 60.0 min

| SMILES | Activity [%] |
| --- | --- |
| C/C=C/Cn1cc(-c2ccc(C(C)(C)O)cc2OC)c2cc[nH]c2c1=O | 15 |

tested on: not listed separately; assay: Cytotoxicity against human MOR cells measured after 8 days; type: functional, cell-based; conditions: 192 h

| SMILES | IC50 [µM] |
| --- | --- |
| C/C=C/Cn1cc(-c2ccc(C(C)(C)O)cc2OC)c2cc[nH]c2c1=O | 20 |

tested on: not listed separately; assay: Cytotoxicity against human LS174T-HM7 cells measured after 8 days; type: functional, cell-based; conditions: LS174T-HM7, 192 h

| SMILES | IC50 [µM] |
| --- | --- |
| C/C=C/Cn1cc(-c2ccc(C(C)(C)O)cc2OC)c2cc[nH]c2c1=O | 20 |

tested on: COLO 205; assay: Cytotoxicity against human COLO 205 cells measured after 8 days; type: functional, cell-based; conditions: COLO 205, 192 h

| SMILES | IC50 [µM] |
| --- | --- |
| C/C=C/Cn1cc(-c2ccc(C(C)(C)O)cc2OC)c2cc[nH]c2c1=O | 20 |

target: T1, Bromodomain-containing protein 4; assay: Displacement of biotinylated small-molecule ligand from recombinant His-tagged BRD4 bromodomain 2 (unknown origin) measured after 10 mins by TR-FRET assay; conditions: not given

| SMILES | IC50 [µM] |
| --- | --- |
| C/C=C/Cn1cc(-c2ccc(C(C)(C)O)cc2OC)c2cc[nH]c2c1=O | > 20 |

target: Bromodomain adjacent to zinc finger domain protein 2A (Homo sapiens, UniProt Q9UIF9); assay: Binding affinity to human partial length BAZ2A (M1792 to L1905 residues) expressed in bacterial expression system by BROMOscan assay; conditions: not given

| SMILES | Kd [µM] |
| --- | --- |
| C/C=C/Cn1cc(-c2ccc(C(C)(C)O)cc2OC)c2cc[nH]c2c1=O | > 10 |

tested on: not listed separately; assay: Cytotoxicity against human KMS-28PE cells measured after 8 days; type: functional, cell-based; conditions: 192 h

| SMILES | IC50 [µM] |
| --- | --- |
| C/C=C/Cn1cc(-c2ccc(C(C)(C)O)cc2OC)c2cc[nH]c2c1=O | 20 |

tested on: NAMALVA; assay: Cytotoxicity against human NAMALVA cells measured after 8 days; type: functional, cell-based; conditions: 192 h

| SMILES | IC50 [µM] |
| --- | --- |
| C/C=C/Cn1cc(-c2ccc(C(C)(C)O)cc2OC)c2cc[nH]c2c1=O | 20 |

tested on: U-698-M; assay: Cytotoxicity against human U-698-M cells measured after 8 days; type: functional, cell-based; conditions: 192 h

| SMILES | IC50 [µM] |
| --- | --- |
| C/C=C/Cn1cc(-c2ccc(C(C)(C)O)cc2OC)c2cc[nH]c2c1=O | 20 |

tested on: NCI-H28; assay: Cytotoxicity against human NCI-H28 cells measured after 8 days; type: functional, cell-based; conditions: NCI-H28, 192 h

| SMILES | IC50 [µM] |
| --- | --- |
| C/C=C/Cn1cc(-c2ccc(C(C)(C)O)cc2OC)c2cc[nH]c2c1=O | 20 |

target: T2, Muscarinic acetylcholine receptor M2 (Homo sapiens) (UniProt P08172); assay: Displacement of [3H]AF-DX 384 from human recombinant M2 receptor at 10 uM after 60 mins by scintillation counting analysis relative to control; conditions: not given
T2 sequence (whole entry): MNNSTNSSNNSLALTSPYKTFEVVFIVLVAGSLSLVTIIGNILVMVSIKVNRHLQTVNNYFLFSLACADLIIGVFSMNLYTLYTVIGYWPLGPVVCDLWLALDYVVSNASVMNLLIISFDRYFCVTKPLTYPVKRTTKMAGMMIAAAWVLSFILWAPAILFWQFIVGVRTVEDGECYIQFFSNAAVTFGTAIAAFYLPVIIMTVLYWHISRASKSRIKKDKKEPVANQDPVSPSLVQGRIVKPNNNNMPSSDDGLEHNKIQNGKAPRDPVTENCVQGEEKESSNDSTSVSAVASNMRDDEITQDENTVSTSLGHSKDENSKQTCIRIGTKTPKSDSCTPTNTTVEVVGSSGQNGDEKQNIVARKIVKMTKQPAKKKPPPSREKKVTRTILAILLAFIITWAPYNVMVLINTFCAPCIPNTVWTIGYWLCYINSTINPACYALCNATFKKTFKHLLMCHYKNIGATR

| SMILES | Activity [%] |
| --- | --- |
| C/C=C/Cn1cc(-c2ccc(C(C)(C)O)cc2OC)c2cc[nH]c2c1=O | -10 |

tested on: GA-10; assay: Cytotoxicity against human GA-10 cells measured after 8 days; type: functional, cell-based; conditions: GA-10, 192 h

| SMILES | IC50 [µM] |
| --- | --- |
| C/C=C/Cn1cc(-c2ccc(C(C)(C)O)cc2OC)c2cc[nH]c2c1=O | 20 |

tested on: NCI-H1703; assay: Cytotoxicity against human NCI-H1703 cells measured after 8 days; type: functional, cell-based; conditions: NCI-H1703, 192 h

| SMILES | IC50 [µM] |
| --- | --- |
| C/C=C/Cn1cc(-c2ccc(C(C)(C)O)cc2OC)c2cc[nH]c2c1=O | 20 |
